Data taken from patent publication US8497298B2, “Use of benzo-fused heterocycle sulfamide derivatives for lowering lipids and lowering blood glucose levels” (Janssen Pharmaceutica NV, priority 2005, dated 2013).

What was measured:
[1] = tested on: Zucker diabetic fatty (ZDF Gmi-fa/fa) rats; experiment: Zucker Diabetic Fatty Rats Assay, Study B: basal glucose and Day 8 plasma parameters (Example 15); format: in vivo, rat; conditions: for Basal glucose levels Day 4: Day 4, 2 hour fasted; for Basal glucose levels Day 4 / Basal glucose levels Day 6 / Basal glucose levels Day 0: in mg/dL; for Basal glucose levels Day 6: Day 6, 2 hour fasted; for Cholesterol / HDL / Insulin / Ratio (Triglyceride to HDL) / Triglyceride: Day 8 plasma; for Basal glucose levels Day 0: female ZDF rats
Description: (§1) Compound #8 was suspended in 0.5% Methocel using a hand held homogenizer to reduce the particle size and a magnetic stir bar and stir plate to keep the particles homogeneously suspended throughout the dosing period. 0.5% Hydroxypropyl Methylcellulose (Methocel) used as vehicle/control. Compound #8 was tested in both diabetic models of mouse and rat.
(§2) In this study, female Zucker diabetic fatty (ZDF Gmi-fa/fa) rats were selected for glucose lowering effect and oral glucose tolerance test (OGTT) studies. ZDF rats from (Charles River Laboratories, Wilmington, Mass.) at 7 weeks of age were individually housed and fed with C13004 diet (obtained from Research Diets, New Brunswick, N.J.). All of the rats were quarantined for a period of one week before transfer to the animal procedure room. A drop of blood (about 2 microliters) was collected by tail puncture and glucose concentration was detected with a glucometer (OneTouch UltraSmart, Lifescan, Milpitas, Calif.).
(§3) ZDF rats at 8 weeks of age were randomized into four treatment groups based on glucose values (first criterion, average of 150 mg/dL) and body weight (second criterion, average of 240 g). 32 rats were allocated into 4 treatment groups of 8 rats each. The four groups were then treated with 0.5% Methocel (vehicle), 10 mg/kg Compound #8, 30 mg/kg Compound #8, and 100 mg/kg Compound #8 in vehicle, respectively.
(§4) The rats were orally gavaged once daily (at 1500-1700 hour) with vehicle control (0.5% Methocel, pH7.4) or vehicle containing Compound #8 for 7 days. The dosing volume was 5 mL/kg body weight (1.2 mL for 250 gram rat). The rats were fed ad lib throughout the study.
Basal glucose levels after treatments were measured on Day 4 and Day 6 in 2 hour fasted rats with a glucometer (OneTouch UltraSmart, Lifescan, Milpitas, Calif.) after collecting two microliters of blood through tail puncture. Oral Glucose Tolerance Test (OGTT) was performed on Day 7 in 4 hour-fasted rats. Two hours after being dosed with Compound #8 or vehicle, the rats were gavaged with a 2g/kg of 50% glucose solution right after basal glucose levels measurement (0 minute). Blood glucose levels were then measured at 30, 60, 90 and 120 minutes through tail puncture.
On Day 8, rats were anaesthetized with sodium pentobarbital (1 ml/kg, intraperitoneal [i.p.] injection, SleepAway, Fort Dodge, Iowa) and blood was drawn via cardiac puncture using 3 mL syringe and collected into heparinized tubes. Plasma samples were obtained by centrifuging whole blood at 2000˜3000 g for 10˜20 minutes at 4° C. and stored at −20° C. for further measurement of insulin, HDL, total cholesterol and triglyceride.
Plasma insulin concentrations were measured by in both studies using the appropriate rat/mouse insulin enzyme-linked immunosorbent assay (ELISA) kit (EZRMI-13K, LINCO Research, St. Charles, Mo.). Blood samples were diluted 1:4 in charcoal stripped mouse serum that was included in the ELISA kit. The rest of the procedure followed the manufacturers instruction. The total fluorescence was detected using an Orion 1 Microplate Luminometer (Berthold Detection Systems, Pforzheim, Germany).
Plasma total cholesterol, high density lipoprotein (HDL), low density lipoprotein (LDL) and triglyceride concentrations were measured by using a Bayer ADVIA 1650 blood chemistry analyzer (Bayer HealthCare LLC, Diagnostic Division, Tarrytown, N.Y.). According to manufacturers protocol, cholesterol measurement was an enzymatic method utilizing cholesterol esterase and cholesterol oxidase conversion followed by a Trinder endpoint; Elimination/catalase method was used for HDL measurement; an enzymatic method with a Trinder endpoint was used for triglyceride measurement.
Data from this study was analyzed using the standard two-tailed Student's t-test and are expressed below as means and standard errors.

[2] = tested on: Zucker diabetic fatty (ZDF Gmi-fa/fa) rats; experiment: Zucker Diabetic Fatty Rats Assay with 29 day wash-out (Example 16); format: in vivo, rat; conditions: for Blood Glucose Level Day 0: Day 0 (baseline), ad lib fed; for Blood Glucose Level Day 36: then 29 days wash-out
Description: as §1
as §2, with “effect.” for “effect and oral glucose tolerance test (OGTT) studies.”
as §3, with “g). 13” for “g). 32”, “of 3” for “of 8”, “rats each for Compound #8 treated groups and 4 rats for the non-treated group.” for “rats each.”, “The three” for “The four”, “with” for “with 0.5% Methocel (vehicle),”, “in 0.5 methylcellulose,” for “in vehicle,”
as §4, with “study. The rats were then allowed 29 days of wash-out period, where no dosing was administered.” for “study.”
Basal glucose levels after treatments were measured on Day 0 (baseline) and Day 36 (after 7 days dosing and 29 days wash-out) in ad lib fed rats with a glucometer (OneTouch UltraSmart, Lifescan, Milpitas, Calif.) after collecting two microliters of blood through tail puncture.
Data from this study was analyzed using the standard two-tailed Student's t-test and are expressed below as means and standard errors, with results as listed in Table 15 below.

NS(=O)(=O)NC[C@H]1COc2cc(Cl)ccc2O1 [Compound #8, (2S)-(−)-N-(6-Chloro-2,3-dihydro-benzo[1,4]dioxin-2-ylmethyl)-sulfamide]
Basal glucose levels Day 4 ([1]; 10 mg/kg oral once daily): 148 ± 15 | Basal glucose levels Day 6 ([1]; 10 mg/kg oral once daily): 190 ± 28 | Cholesterol ([1]; 10 mg/kg): 142 ± 6 mg/dL | HDL ([1]; 10 mg/kg): 36 ± 1.0 mg/dL | Insulin ([1]; 10 mg/kg): 16 ± 1.0 ng/mL | Ratio (Triglyceride to HDL) ([1]; 10 mg/kg): 37 ± 3 | Triglyceride ([1]; 10 mg/kg): 1323 ± 124 mg/dL | Basal glucose levels Day 4 ([1]; 30 mg/kg oral once daily): 146 ± 9 | Basal glucose levels Day 6 ([1]; 30 mg/kg oral once daily): 151 ± 11 | Cholesterol ([1]; 30 mg/kg): 144 ± 11 mg/dL | HDL ([1]; 30 mg/kg): 36 ± 1.1 mg/dL | Insulin ([1]; 30 mg/kg): 14 ± 1.1 ng/mL | Ratio (Triglyceride to HDL) ([1]; 30 mg/kg): 39 ± 7 | Triglyceride ([1]; 30 mg/kg): 1383 ± 254 mg/dL | Basal glucose levels Day 4 ([1]; 100 mg/kg oral once daily): 125 ± 4 | Basal glucose levels Day 6 ([1]; 100 mg/kg oral once daily): 134 ± 5 | plasma insulin decreased ([1]; 100 mg/kg, Day 8): 32% | ratio of triglyceride to HDL reduced ([1]; 100 mg/kg, Day 8): 59% | Cholesterol ([1]; 100 mg/kg): 134 ± 7 mg/dL | HDL ([1]; 100 mg/kg): 41 ± 2.2 mg/dL | Insulin ([1]; 100 mg/kg): 8.8 ± 1.2 ng/mL | Ratio (Triglyceride to HDL) ([1]; 100 mg/kg): 19 ± 3 | Triglyceride ([1]; 100 mg/kg): 776 ± 119 mg/dL | food intake and weight loss ([1]; any of the groups (10, 30, 100 mg/kg)): No reduction in food intake reduction or weight loss | Basal glucose levels Day 0 ([1]; 10 mg/kg group): 153 ± 13 | Basal glucose levels Day 0 ([1]; 30 mg/kg group): 152 ± 11 | Basal glucose levels Day 0 ([1]; 100 mg/kg group): 147 ± 7 | Blood Glucose Level Day 0 ([2]; 10 mg/kg group): 222 ± 20 mg/dL | Blood Glucose Level Day 36 ([2]; 10 mg/kg oral once daily 7 days): 295 ± 81 mg/dL | Blood Glucose Level Day 0 ([2]; 30 mg/kg group): 229 ± 23 mg/dL | Blood Glucose Level Day 36 ([2]; 30 mg/kg oral once daily 7 days): 247 ± 86 mg/dL | Blood Glucose Level Day 0 ([2]; 100 mg/kg group): 228 ± 18 mg/dL | Blood Glucose Level Day 36 ([2]; 100 mg/kg oral once daily 7 days): 219 ± 39 mg/dL
